Measurements from patent publication US20260042731A1, “(2,4-DICHLOROPHENOXY)ACETIC ACID ANALOGS” (CORTEVA AGRISCIENCE LLC, priority 2022, published 2026).
Where two headings read alike, the source gives them in different places.

Key:
[1] = test system: Amaranthus rudis (AMATA), tall water hemp; test: Postemergence herbicide evaluation, growth of Amaranthus rudis (AMATA); format: in vivo; settings: Amaranthus tuberculatus, post-emergence, percent reduction in plant size vs untreated control, read-out: Ave. AMATA; for pest or weed control at 280 g/ha: 280 g ae/ha; for pest or weed control at 560 g/ha: 560 g ae/ha
[2] = test system: Ambrosia artemisiifolia (AMBEL), common ragweed; test: Postemergence herbicide evaluation, growth of Ambrosia artemisiifolia (AMBEL); format: in vivo; settings: Ambrosia artemisiifolia, post-emergence, percent reduction in plant size vs untreated control, read-out: AVE. AMBEL; for pest or weed control at 280 g/ha: 280 g ae/ha; for pest or weed control at 560 g/ha: 560 g ae/ha
[3] = test system: Abutilon theophrasti (ABUTH), velvetleaf; test: Postemergence herbicide evaluation, growth of Abutilon theophrasti (ABUTH); format: in vivo; settings: Abutilon theophrasti, post-emergence, percent reduction in plant size vs untreated control, read-out: AVE. ABUTH; for pest or weed control at 280 g/ha: 280 g ae/ha; for pest or weed control at 560 g/ha: 560 g ae/ha
[4] = test system: Chenopodium album (CHEAL), common lambsquarters; test: Postemergence herbicide evaluation, growth of Chenopodium album (CHEAL); format: in vivo; settings: Chenopodium album, post-emergence, percent reduction in plant size vs untreated control, read-out: Ave. CHEAL; for pest or weed control at 280 g/ha: 280 g ae/ha; for pest or weed control at 560 g/ha: 560 g ae/ha
[5] = test system: glyphosate resistant Conyza canadensis (L.) (ERICA), horseweed; test: Postemergence herbicide evaluation, growth of Conyza canadensis (ERICA); format: in vivo; settings: Erigeron canadensis, post-emergence, percent reduction in plant size vs untreated control, read-out: Ave. ERICA; for pest or weed control at 280 g/ha: 280 g ae/ha; for pest or weed control at 560 g/ha: 560 g ae/ha
[6] = Volatility of compounds measured by thermogravimetric analysis (TGA); format: physicochemical
[7] = test system: weeds ABUTH, AMATA, AMBEL, CHEAL, ERICA; test: Postemergence herbicide evaluation, overall average % weed control across ABUTH, AMATA, AMBEL, CHEAL and ERICA; format: in vivo; settings: post-emergence, average over five weeds, read-out: Overall Ave % Weed Control; for pest or weed control at 280 g/ha: 280 g ae/ha; for pest or weed control at 560 g/ha: 560 g ae/ha

SMILES | pest or weed control at 280 g/ha ([1]; 168 h, 7 DAA) [%] | pest or weed control at 560 g/ha ([1]; 168 h, 7 DAA) [%] | pest or weed control at 280 g/ha ([1]; 336 h, 14 DAA) [%] | pest or weed control at 560 g/ha ([1]; 336 h, 14 DAA) [%] | pest or weed control at 280 g/ha ([1]; 504 h, 21 DAA) [%] | pest or weed control at 560 g/ha ([1]; 504 h, 21 DAA) [%] | pest or weed control at 280 g/ha ([2]; 168 h, 7 DAA) [%] | pest or weed control at 560 g/ha ([2]; 168 h, 7 DAA) [%] | pest or weed control at 280 g/ha ([2]; 336 h, 14 DAA) [%] | pest or weed control at 560 g/ha ([2]; 336 h, 14 DAA) [%] | pest or weed control at 280 g/ha ([2]; 504 h, 21 DAA) [%] | pest or weed control at 560 g/ha ([2]; 504 h, 21 DAA) [%] | pest or weed control at 280 g/ha ([3]; 168 h, 7 DAA) [%] | pest or weed control at 560 g/ha ([3]; 168 h, 7 DAA) [%] | pest or weed control at 280 g/ha ([3]; 336 h, 14 DAA) [%] | pest or weed control at 560 g/ha ([3]; 336 h, 14 DAA) [%] | pest or weed control at 280 g/ha ([3]; 504 h, 21 DAA) [%] | pest or weed control at 560 g/ha ([3]; 504 h, 21 DAA) [%] | pest or weed control at 280 g/ha ([4]; 168 h, 7 DAA) [%] | pest or weed control at 560 g/ha ([4]; 168 h, 7 DAA) [%] | other results
O=C(COc1ccc(Cl)cc1Cl)NOCCc1ccccc1 [Compound D18] | 72.5 | 96 | 87.5 | 96 | 75 | 95 | 75 | 91 | 80 | 95 | 100 | 100 | 67.5 | 72.5 | 85 | 96.5 | 100 | 99.5 | 75 | 75 | pest or weed control at 280 g/ha ([4]; 336 h, 14 DAA): 97.5%; pest or weed control at 560 g/ha ([4]; 336 h, 14 DAA): 92.5%; pest or weed control at 280 g/ha ([4]; 504 h, 21 DAA): 92.5%; pest or weed control at 560 g/ha ([4]; 504 h, 21 DAA): 100%; pest or weed control at 280 g/ha ([5]; 168 h, 7 DAA): 85%; pest or weed control at 560 g/ha ([5]; 168 h, 7 DAA): 85%; pest or weed control at 280 g/ha ([5]; 336 h, 14 DAA): 99%; pest or weed control at 560 g/ha ([5]; 336 h, 14 DAA): 98%; pest or weed control at 280 g/ha ([5]; 504 h, 21 DAA): 100%; pest or weed control at 560 g/ha ([5]; 504 h, 21 DAA): 98%; TGA Data (rate of weight loss, volatility) [6]: 0.1777 µg/min; pest or weed control at 280 g/ha ([7]; 168 h, 7 DAA): 75%; pest or weed control at 560 g/ha ([7]; 168 h, 7 DAA): 83.9%; pest or weed control at 280 g/ha ([7]; 336 h, 14 DAA): 89.8%; pest or weed control at 560 g/ha ([7]; 336 h, 14 DAA): 95.6%; pest or weed control at 280 g/ha ([7]; 504 h, 21 DAA): 93.5%; pest or weed control at 560 g/ha ([7]; 504 h, 21 DAA): 98.5%
O=C(COc1cc(Cl)cc(Cl)c1)OCCCOC(=O)COc1ccc(Cl)cc1Cl [Compound B7] | 57.5 | 67.5 | 85 | 85 | 70 | 52.5 | 62.5 | 72.5 | 57.5 | 67.5 | 77.5 | 100 | 20 | 37.5 | 17.5 | 30 | 15 | 42.5 | 82.5 | 77.5 | pest or weed control at 280 g/ha ([4]; 336 h, 14 DAA): 96.5%; pest or weed control at 560 g/ha ([4]; 336 h, 14 DAA): 96.5%; pest or weed control at 280 g/ha ([4]; 504 h, 21 DAA): 90%; pest or weed control at 560 g/ha ([4]; 504 h, 21 DAA): 87.5%; pest or weed control at 280 g/ha ([5]; 168 h, 7 DAA): 82.5%; pest or weed control at 560 g/ha ([5]; 168 h, 7 DAA): 85%; pest or weed control at 280 g/ha ([5]; 336 h, 14 DAA): 70%; pest or weed control at 560 g/ha ([5]; 336 h, 14 DAA): 91.5%; pest or weed control at 280 g/ha ([5]; 504 h, 21 DAA): 99%; pest or weed control at 560 g/ha ([5]; 504 h, 21 DAA): 98.5%; TGA Data (rate of weight loss, volatility) [6]: 0.03572 µg/min; pest or weed control at 280 g/ha ([7]; 168 h, 7 DAA): 61%; pest or weed control at 560 g/ha ([7]; 168 h, 7 DAA): 68%; pest or weed control at 280 g/ha ([7]; 336 h, 14 DAA): 65.3%; pest or weed control at 560 g/ha ([7]; 336 h, 14 DAA): 74.1%; pest or weed control at 280 g/ha ([7]; 504 h, 21 DAA): 70.3%; pest or weed control at 560 g/ha ([7]; 504 h, 21 DAA): 76.2%
O=C(COc1ccc(Cl)cc1Cl)Nc1ccnc(Cl)c1 [Compound D13] | 72.5 | 75 | 91 | 84 | 80 | 92 | 70 | 75 | 75 | 91 | 94 | 50 | 35 | 32.5 | 40 | 35 | 57.5 | 37.5 | 77.5 | 75 | pest or weed control at 280 g/ha ([4]; 336 h, 14 DAA): 95%; pest or weed control at 560 g/ha ([4]; 336 h, 14 DAA): 98%; pest or weed control at 280 g/ha ([4]; 504 h, 21 DAA): 90%; pest or weed control at 560 g/ha ([4]; 504 h, 21 DAA): 92.5%; pest or weed control at 280 g/ha ([5]; 168 h, 7 DAA): 80%; pest or weed control at 560 g/ha ([5]; 168 h, 7 DAA): 82.5%; pest or weed control at 280 g/ha ([5]; 336 h, 14 DAA): 92.5%; pest or weed control at 560 g/ha ([5]; 336 h, 14 DAA): 91.5%; pest or weed control at 280 g/ha ([5]; 504 h, 21 DAA): 97.5%; pest or weed control at 560 g/ha ([5]; 504 h, 21 DAA): 99%; TGA Data (rate of weight loss, volatility) [6]: 0.06009 µg/min; pest or weed control at 280 g/ha ([7]; 168 h, 7 DAA): 67%; pest or weed control at 560 g/ha ([7]; 168 h, 7 DAA): 68%; pest or weed control at 280 g/ha ([7]; 336 h, 14 DAA): 78.7%; pest or weed control at 560 g/ha ([7]; 336 h, 14 DAA): 79.9%; pest or weed control at 280 g/ha ([7]; 504 h, 21 DAA): 83.8%; pest or weed control at 560 g/ha ([7]; 504 h, 21 DAA): 74.2%
CONC(=O)COc1ccc(Cl)cc1Cl [Compound D19] | 77.5 | 90 | 90 | 93.5 | 72.5 | 75 | 82.5 | 93.5 | 82.5 | 85 | 100 | 100 | 75 | 87.5 | 89 | 98 | 98.5 | 100 | 77.5 | 85 | pest or weed control at 280 g/ha ([4]; 336 h, 14 DAA): 94%; pest or weed control at 560 g/ha ([4]; 336 h, 14 DAA): 95%; pest or weed control at 280 g/ha ([4]; 504 h, 21 DAA): 96.5%; pest or weed control at 560 g/ha ([4]; 504 h, 21 DAA): 98%; pest or weed control at 280 g/ha ([5]; 168 h, 7 DAA): 82.5%; pest or weed control at 560 g/ha ([5]; 168 h, 7 DAA): 80%; pest or weed control at 280 g/ha ([5]; 336 h, 14 DAA): 98%; pest or weed control at 560 g/ha ([5]; 336 h, 14 DAA): 100%; pest or weed control at 280 g/ha ([5]; 504 h, 21 DAA): 98.5%; pest or weed control at 560 g/ha ([5]; 504 h, 21 DAA): 99.5%; TGA Data (rate of weight loss, volatility) [6]: 0.61 µg/min; pest or weed control at 280 g/ha ([7]; 168 h, 7 DAA): 79%; pest or weed control at 560 g/ha ([7]; 168 h, 7 DAA): 87.2%; pest or weed control at 280 g/ha ([7]; 336 h, 14 DAA): 90.7%; pest or weed control at 560 g/ha ([7]; 336 h, 14 DAA): 94.3%; pest or weed control at 280 g/ha ([7]; 504 h, 21 DAA): 93.2%; pest or weed control at 560 g/ha ([7]; 504 h, 21 DAA): 94.5%
